One assay deals with AML cell line U937. The assay is described as follows: Western immunoblotting of U937 cells for acetylated tubulin, p21 and PARP. The conditions noted are these: 2 μM 5-aza, 10 nM LBH589 or combination, 24 hours, western blot (FIG. 1). The class given is cell-based. On the technique in general: Immunoblotting shows a protein as a band on a membrane.
Assay [1] deals with primary human AML blast cells. The assay is described as follows: Loss of viability of primary patient AML cells, trypan-blue exclusion. The class given is cell-based. The conditions noted are these: one table row per patient (1-6). As to the method: To further test the combination of LBH589+5-aza to induce cell death in AML, the U937 AML cell lines and fresh leukemia blast cells from AML patients are incubated with the compounds either as a combination or as single agents. Cell death is either monitored by cells staining for Annexin V (signifying apoptosis) or by counting live cells by trypan-blue exclusion. […] Importantly, no antagonism is observed when the two compounds are combined. […] Trypan-blue exclusion is used to count number of viable cells and percentage of dead cells for each treatment calculated and tabulated.

Structures are written as SMILES. Where “and” joins values, the source holds several entries; their conditions need not be identical. Equal values may be shown once.

Procedure for AML cell line U937: The AML cell line U937 is incubated with LBH589 or 5-aza as single agents or in combination.
U937 cells are treated with 2 μM 5-aza, 10 nM LBH589 or with a combination of 5-aza+LBH589 for 24 hours. Cells are lysed, proteins separated by SDS-PAGE and western immunoblotting analysis done with antibodies against acetylated tubulin, p21, PARP and β-actin (control for loading).

Turning to `Nc1ncn([C@@H]2O[C@H](CO)[C@@H](O)[C@H]2O)c(=O)n1` [5-aza, 5-azacytidine], in the assay with AML cell line U937, the “PARP cleavage as a measure of apoptotic cell death” value is reported as “only a slight PARP cleavage”, the acetylation of alpha-tubulin result is recorded as “not” and the “expression of the cell growth inhibitor p21” value is “induces the expression”. Further, the “% Cell Death” value in assay [1] (Aza 1 μM, listed as Aza) is 8.6% and 16.5% and 25.9% and 13.1% and 15% and 19.3%. Moreover, in assay [1] (Aza 2 μM, listed as Aza), the “% Cell Death” value is 10.1% and 19.3% and 28.5% and 15.9% and 22.6% and 40.4%.

As for `Cc1[nH]c2ccccc2c1CCNCc1ccc(/C=C/C(=O)NO)cc1` [LBH589, N-hydroxy-3-[4-[[[2-(2-methyl-1H-indol-3-yl)-ethyl]-amino]methyl]phenyl]-2E-2-propenamide], in the assay with AML cell line U937, the “PARP cleavage as a measure of apoptotic cell death” value is “only a slight PARP cleavage”, the acetylation of alpha-tubulin entry was “induces increased acetylation” and the “expression of the cell growth inhibitor p21” value is given as “induces the expression”. In addition, in assay [1] (LBH-589 10 nM), the “% Cell Death” value was 15.4% and 22.3% and 41.9% and 19.5% and 73.7% and 35.9%. For the same compound, in assay [1] (LBH-589 50 nM), the “% Cell Death” value is 45.1% and 34.2% and 62.6% and 41.6% and 85.6% and 48.9%.

The record behind these values is US8093220B2, “Combination of an HDAC inhibitor and an antimetabolite” (Novartis AG, priority 2006, dated 2012).
